Results reported in the supplement of paper PMC10331698.
± gives the standard deviation of the averaged measurements.

Columns and labels:
Experiment in all cases: level (log10 ratio to DMSO vehicle control); higher = higher biomarker level / cell amount than vehicle control
Conditions in all cases: in DMSO
[1] = compound: Cn1cnc([N+](=O)[O-])c1Sc1ncnc2[nH]cnc12 [Azathioprine]
Procedure: (§1)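 BioMAP Diversity Plus panel of 12 human primary cell co-culture systems (3C, 4H, LPS, SAg, BT, BF4T, BE3C, CASM3C, HDF3CGF, KF3CT, MyoF, Mphg). Compounds were added 1 h before stimulation and left for 24 h (MyoF 48 h; BT 72 h for soluble read-outs or 6 d for IgG). Biomarkers were read by ELISA, cytotoxicity by SRB, PBMC viability and proliferation by Alamar Blue. Each well value was divided by the mean of 8 DMSO control wells on the same plate and log10 transformed; duplicate blinded samples were tested at 4 concentrations.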

[2] = compound: O=C(O)C(F)(F)C(F)(F)C(F)(F)C(F)(F)C(F)(F)C(F)(F)C(F)(F)C(F)(F)C(F)(F)C(F)(F)C(F)(F)C(F)(F)C(F)(F)F [Perfluorotetradecanoic acid]
Procedure: as §1

[3] = compound: O=C(O)C(F)(F)C(F)(F)C(F)(F)C(F)(F)C(F)(F)C(F)(F)C(F)(F)C(F)(F)C(F)(F)C(F)(F)C(F)(F)C(F)(F)F [Perfluorotridecanoic acid]
Procedure: as §1

[4] = compound: O=S(=O)(O)C(F)(F)C(F)(F)C(F)(F)C(F)(F)C(F)(F)C(F)(F)C(F)(F)C(F)(F)F [Potassium perfluorooctanesulfonate]
Procedure: as §1

[5] = compound: O=S(=O)(O)C(F)(F)C(F)(F)C(F)(F)C(F)(F)F [Perfluorobutanesulfonic acid]
Procedure: as §1

[6] = compound: OCC(F)(F)C(F)(F)C(F)(F)C(F)(F)C(F)(F)C(F)F [1H,1H,7H-Dodecafluoro-1-heptanol]
Procedure: as §1

Test System	level (log10) ([1]; 1400 nM)	level (log10) ([1]; 4200 nM)	level (log10) ([1]; 13000 nM)	level (log10) ([1]; 38000 nM)	level (log10) ([2]; 6700 nM)	level (log10) ([2]; 20000 nM)	level (log10) ([3]; 1500 nM)	level (log10) ([3]; 4400 nM)	level (log10) ([3]; 13000 nM)	level (log10) ([3]; 40000 nM)	level (log10) ([4]; 6700 nM)	level (log10) ([4]; 20000 nM)	level (log10) ([4]; 60000 nM)	level (log10) ([5]; 6700 nM)	level (log10) ([5]; 20000 nM)	level (log10) ([5]; 60000 nM)	level (log10) ([6]; 6700 nM)	level (log10) ([6]; 20000 nM)	level (log10) ([6]; 60000 nM)
BF4T:MMP-1	0 ± 0.014	-0.001 ± 0.0042	-0.003 ± 0.0042	0.019 ± 0.025	0.0015 ± 0.00071	0.013 ± 0.0028	0 ± 0.025	-0.005 ± 0.0057	-0.0015 ± 0.013	0.0045 ± 0.00071	0.028 ± 0.017	0.046 ± 0.0028	0.062 ± 0.011	0.0035 ± 0.0064	-0.009 ± 0.013	-0.0045 ± 0.00071	0.0095 ± 0.04	0.0145 ± 0.037	0.0245 ± 0.0092
BF4T:MMP-3	0.01 ± 0.02	-0.02 ± 0.018	-0.015 ± 0.0057	0.0235 ± 0.052	0.027 ± 0.04	0.0475 ± 0.066	0.042 ± 0.054	-0.0155 ± 0.061	0.0115 ± 0.032	0.0155 ± 0.012	0.0175 ± 0.028	0.0635 ± 0.026	0.087 ± 0.065	0.014 ± 0.0014	0.001	0.042 ± 0.033	-0.01 ± 0.034	-0.012 ± 0.038	0.001 ± 0.04
BF4T:MMP-9	0.0365 ± 0.087	-0.001 ± 0.04	0.004 ± 0.021	0.0215 ± 0.023	-0.0165 ± 0.047	0 ± 0.035	0.01 ± 0.027	0.0075 ± 0.043	-0.0015 ± 0.036	0.033 ± 0.078	0.024 ± 0.017	0.048 ± 0.02	0.0665 ± 0.046	-0.004 ± 0.0014	-0.0065 ± 0.028	-0.013 ± 0.02	-0.0055 ± 0.03	-0.011 ± 0.027	0.0095 ± 0.046
BF4T:PAI-I	0.004 ± 0.017	-0.001 ± 0.0099	-0.009 ± 0.0014	-0.005 ± 0.013	0.014 ± 0.0028	0.0245 ± 0.029	0.0025 ± 0.028	0.005 ± 0.017	0.007 ± 0.02	0.0235 ± 0.0021	0.0015 ± 0.0092	-0.0045 ± 0.0078	0.007 ± 0.04	-0.0075 ± 0.0092	-0.005 ± 0.0042	0.0015 ± 0.005	0.0055 ± 0.005	-0.0035 ± 0.013	0.0105 ± 0.013
BF4T:SRB	0.016 ± 0.014	-0.0045 ± 0.0092	-0.0025 ± 0.0021	-0.005 ± 0.0028	0.0025 ± 0.0092	0.001 ± 0.0071	0.009 ± 0.0042	-0.0045 ± 0.005	0.0025 ± 0.011	0.008 ± 0.013	-0.01 ± 0.011	-0.01 ± 0.0099	-0.002 ± 0.0099	-0.006 ± 0.0099	-0.0085 ± 0.005	-0.009 ± 0.0028	-0.007 ± 0.0028	-0.01	-0.0005 ± 0.005
BF4T:tPA	0.005 ± 0.048	-0.034 ± 0.011	-0.071 ± 0.023	-0.0935 ± 0.053	-0.0015 ± 0.019	0.0015 ± 0.049	0.025 ± 0.05	-0.009 ± 0.017	-0.0045 ± 0.015	-0.0085 ± 0.018	-0.0045 ± 0.0092	-0.019 ± 0.0028	0.0185 ± 0.032	-0.0115 ± 0.021	0.0025 ± 0.0092	0.0115 ± 0.018	0.0045 ± 0.0078	-0.0025 ± 0.00071	0.01 ± 0.011
BF4T:uPA	0 ± 0.0099	-0.008 ± 0.0042	-0.033 ± 0.0028	-0.026 ± 0.0099	0.0075 ± 0.0078	0.017 ± 0.0028	0.0185 ± 0.018	0.011 ± 0.0042	0.0095 ± 0.0021	0.0155 ± 0.005	-0.004 ± 0.0028	0.01 ± 0.016	0.0395 ± 0.043	-0.026 ± 0.02	0.006 ± 0.0014	-0.014 ± 0.027	-0.0125 ± 0.019	-0.0145 ± 0.0021	-0.002 ± 0.0014
BT:B cell Proliferation	-0.0315 ± 0.0064	-0.0305 ± 0.0092	-0.0555 ± 0.005	-0.123 ± 0.026	-0.0055 ± 0.023	-0.0035 ± 0.028	-0.0035 ± 0.052	0.029 ± 0.016	0.01 ± 0.011	0.0265 ± 0.035	0.031 ± 0.016	0.0425 ± 0.018	0.0795 ± 0.005	-0.0025 ± 0.016	0.0085 ± 0.016	0.038 ± 0.0014	-0.014 ± 0.0028	-0.035 ± 0.0014	-0.04 ± 0.02
BT:PBMC Cytotoxicity	0.002 ± 0.023	0.002 ± 0.018	-0.054 ± 0.017	-0.085 ± 0.04	-0.01 ± 0.0042	0.0305 ± 0.059	-0.0035 ± 0.00071	0.0245 ± 0.005	0.018 ± 0.011	0.0165 ± 0.029	-0.0055 ± 0.022	0.0125 ± 0.033	0.097 ± 0.058	0.03 ± 0.044	0.039 ± 0.027	0.057 ± 0.0057	-0.0155 ± 0.0021	-0.016 ± 0.013	-0.049 ± 0.0028
BT:Secreted IgG	-0.866 ± 0.086	-0.986 ± 0.019	-0.857 ± 0.054	-0.672 ± 0.0085	-0.029 ± 0.072	0.001 ± 0.03	0.001 ± 0.042	-0.0025 ± 0.067	-0.027 ± 0.052	-0.029 ± 0.02	0.0115 ± 0.018	0.018 ± 0.0071	-0.0055 ± 0.005	0.0005 ± 0.00071	-0.0055 ± 0.023	-0.016 ± 0.052	0.014 ± 0.025	-0.01 ± 0.028	-0.0275 ± 0.03
BT:sIL-2	-0.017 ± 0.11	-0.033 ± 0.1	-0.164 ± 0.037	-0.629 ± 0.044	0.0535 ± 0.011	0.0415 ± 0.069	0.064	0.061 ± 0.0042	0.0925 ± 0.022	0.093 ± 0.14	0.042 ± 0.027	0.0595 ± 0.029	-0.0325 ± 0.077	-0.0155 ± 0.079	-0.059 ± 0.044	-0.025 ± 0.04	0.026 ± 0.013	-0.0265 ± 0.005	-0.025 ± 0.045
BT:sIL-6	-0.0045 ± 0.042	-0.0485 ± 0.074	-0.228 ± 0.013	-0.563 ± 0.0042	-0.0615 ± 0.052	-0.0545 ± 0.13	0.033 ± 0.086	-0.0175 ± 0.026	0.011 ± 0.12	-0.0485 ± 0.066	0.0165 ± 0.042	0.0765 ± 0.016	-0.023 ± 0.11	-0.035 ± 0.061	0.004 ± 0.067	0.012 ± 0.02	0.007 ± 0.085	-0.037 ± 0.014	-0.113 ± 0.068
BT:sIL-17A	-0.075 ± 0.078	-0.179 ± 0.099	-0.304 ± 0.0057	-0.804 ± 0.058	-0.111 ± 0.021	-0.059 ± 0.16	-0.134 ± 0.0028	-0.113 ± 0.014	0.155 ± 0.15	-0.104 ± 0.11	0.023 ± 0.25	0.158 ± 0.1	-0.133 ± 0.022	-0.0215 ± 0.14	0.157 ± 0.016	0.021 ± 0.2	-0.182 ± 0.044	-0.091 ± 0.14	-0.174 ± 0.16
